Measured values as given in patent US20040063662A1, “Selenophene anti-tumor agents” (priority 1996, published 2004).

Experiments:
[1] = system: K-562; assay: NCI human tumor cell panel: K-562 (Leukemia); type: cell-based; conditions: for GI50: K562, K-562, read-out: Log10 GI50 (converted); for IC (TGI): K562, K-562, read-out: Log10 TGI (converted)
[2] = system: MCF7/ADR-RES; assay: NCI human tumor cell panel: MCF7/ADR-RES (Breast Cancer); type: cell-based; conditions: for GI50: read-out: Log10 GI50 (converted); for IC (TGI): read-out: Log10 TGI (converted)
[3] = system: TK-10; assay: NCI human tumor cell panel: TK-10 (Renal Cancer); type: cell-based; conditions: for GI50: TK-10, read-out: Log10 GI50 (converted); for IC (TGI): TK-10, read-out: Log10 TGI (converted)
[4] = system: BT-549; assay: NCI human tumor cell panel: BT-549 (Breast Cancer); type: cell-based; conditions: for GI50: BT-549, read-out: Log10 GI50 (converted); for IC (TGI): BT-549, read-out: Log10 TGI (converted)
[5] = system: LOX IMVI; assay: NCI human tumor cell panel: LOX IMVI (Melanoma); type: cell-based; conditions: for GI50: read-out: Log10 GI50 (converted); for IC (TGI): read-out: Log10 TGI (converted)
[6] = system: EKVX; assay: NCI human tumor cell panel: EKVX (Non-Small Cell Lung Cancer); type: cell-based; conditions: for GI50: read-out: Log10 GI50 (converted); for IC (TGI): read-out: Log10 TGI (converted)
[7] = system: UACC-257; assay: NCI human tumor cell panel: UACC-257 (Melanoma); type: cell-based; conditions: for GI50: UACC-257, read-out: Log10 GI50 (converted); for IC (TGI): UACC-257, read-out: Log10 TGI (converted)
[8] = system: OVCAR-4; assay: NCI human tumor cell panel: OVCAR-4 (Ovarian Cancer); type: cell-based; conditions: for GI50: OVCAR-4, read-out: Log10 GI50 (converted)
[9] = system: SR; assay: NCI human tumor cell panel: SR (Leukemia); type: cell-based; conditions: for GI50: read-out: Log10 GI50 (converted); for IC (TGI): read-out: Log10 TGI (converted)
[10] = system: IGROV1; assay: NCI human tumor cell panel: IGROV1 (Ovarian Cancer); type: cell-based
[11] = system: MDA-MB-435; assay: NCI human tumor cell panel: MDA-MB-435 (Breast Cancer); type: cell-based; conditions: for GI50: MDA-MB-435, read-out: Log10 GI50 (converted); for IC (TGI): MDA-MB-435, read-out: Log10 TGI (converted)
[12] = system: KM12; assay: NCI human tumor cell panel: KM12 (Colon Cancer); type: cell-based; conditions: for GI50: KM12, read-out: Log10 GI50 (converted); for IC (TGI): KM12, read-out: Log10 TGI (converted)
[13] = system: NCI-H522; assay: NCI human tumor cell panel: NCI-H522 (Non-Small Cell Lung Cancer); conditions: for GI50: NCI-H522, read-out: Log10 GI50 (converted); for IC (TGI): NCI-H522, read-out: Log10 TGI
[14] = system: PC-3; assay: NCI human tumor cell panel: PC-3 (Prostate Cancer); type: cell-based; conditions: for GI50: PC-3, read-out: Log10 GI50 (converted); for IC (TGI): PC-3, read-out: Log10 TGI (converted)
[15] = system: HS 578T; assay: NCI human tumor cell panel: HS 578T (Breast Cancer); type: cell-based; conditions: for IC (TGI): read-out: Log10 TGI (converted)
[16] = system: OVCAR-8; assay: NCI human tumor cell panel: OVCAR-8 (Ovarian Cancer); type: cell-based; conditions: for GI50: OVCAR-8, read-out: Log10 GI50 (converted); for IC (TGI): OVCAR-8, read-out: Log10 TGI (converted)
[17] = system: RPMI-8226; assay: NCI human tumor cell panel: RPMI-8226 (Leukemia); type: cell-based; conditions: for GI50: RPMI-8226, read-out: Log10 GI50 (converted); for IC (TGI): RPMI-8226, read-out: Log10 TGI
[18] = system: OVCAR-5; assay: NCI human tumor cell panel: OVCAR-5 (Ovarian Cancer); type: cell-based; conditions: for GI50: OVCAR-5, read-out: Log10 GI50 (converted)
[19] = system: A498; assay: NCI human tumor cell panel: A498 (Renal Cancer); type: cell-based; conditions: for GI50: A498, read-out: Log10 GI50 (converted); for IC (TGI): A498, read-out: Log10 TGI (converted)
[20] = system: SNB-19; assay: NCI human tumor cell panel: SNB-19 (CNS Cancer); type: cell-based; conditions: for GI50: SNB-19, read-out: Log10 GI50 (converted); for IC (TGI): SNB-19, read-out: Log10 TGI (converted)
[21] = system: ACHN; assay: NCI human tumor cell panel: ACHN (Renal Cancer); type: cell-based; conditions: for GI50: read-out: Log10 GI50 (converted); for IC (TGI): read-out: Log10 TGI (converted)
[22] = system: SF-539; assay: NCI human tumor cell panel: SF-539 (CNS Cancer); type: cell-based; conditions: for GI50: SF-539, read-out: Log10 GI50 (converted); for IC (TGI): SF-539, read-out: Log10 TGI (converted)
[23] = system: 786-0; assay: NCI human tumor cell panel: 786-0 (Renal Cancer); type: cell-based; conditions: for GI50: 786-0, read-out: Log10 GI50 (converted); for IC (TGI): 786-0, read-out: Log10 TGI (converted)
[24] = system: SK-MEL-28; assay: NCI human tumor cell panel: SK-MEL-28 (Melanoma); type: cell-based; conditions: for GI50: SK-MEL-28, read-out: Log10 GI50 (converted); for IC (TGI): SK-MEL-28, read-out: Log10 TGI (converted)
[25] = system: UO-31; assay: NCI human tumor cell panel: UO-31 (Renal Cancer); type: cell-based; conditions: for GI50: UO-31, read-out: Log10 GI50 (converted); for IC (TGI): UO-31, read-out: Log10 TGI (converted)
[26] = system: SF-295; assay: NCI human tumor cell panel: SF-295 (CNS Cancer); type: cell-based; conditions: for GI50: SF-295, read-out: Log10 GI50 (converted); for IC (TGI): SF-295, read-out: Log10 TGI (converted)
[27] = system: HOP-92; assay: NCI human tumor cell panel: HOP-92 (Non-Small Cell Lung Cancer); conditions: for GI50: HOP-92, read-out: Log10 GI50 (converted); for IC (TGI): HOP-92, read-out: Log10 TGI
[28] = system: MALME-3M; assay: NCI human tumor cell panel: MALME-3M (Melanoma); type: cell-based; conditions: Malme-3M; for GI50: read-out: Log10 GI50 (converted); for IC (TGI): read-out: Log10 TGI (converted)
[29] = system: A549/ATCC; assay: NCI human tumor cell panel: A549/ATCC (Non-Small Cell Lung Cancer); type: cell-based; conditions: for GI50: read-out: Log10 GI50 (converted); for IC (TGI): read-out: Log10 TGI (converted)
[30] = system: NCI-H322M; assay: cells; type: cell-based; conditions: Homo sapiens; for IC (TGI): read-out: Log10 TGI (converted)
[31] = system: OVCAR-3; assay: NCI human tumor cell panel: OVCAR-3 (Ovarian Cancer); type: cell-based; conditions: for GI50: OVCAR-3, read-out: Log10 GI50 (converted); for IC (TGI): OVCAR-3, read-out: Log10 TGI (converted)
[32] = system: NCI-H460; assay: NCI human tumor cell panel: NCI-H460 (Non-Small Cell Lung Cancer); type: cell-based; conditions: for GI50: NCI-H460, read-out: Log10 GI50 (converted); for IC (TGI): NCI-H460, read-out: Log10 TGI (converted)
[33] = read-out: Log10 GI50 (converted)

## OCc1ccc(-c2ccc(-c3ccc(CO)[se]3)s2)s1 [compound 688830]
[1]
  GI50: 0.0724 µM
  IC (TGI): 17.4 µM
[2]
  GI50: 12.3 µM
  IC (TGI): > 100 µM
[3]
  GI50: < 0.01 µM
  IC (TGI): 0.0372 µM
[4]
  GI50: > 100 µM
  IC (TGI): > 100 µM
[5]
  GI50: 13.5 µM
  IC (TGI): 27.5 µM
[6]
  GI50: 19.5 µM
  IC (TGI): 66.1 µM
[7]
  GI50: 0.0166 µM
  IC (TGI): 0.0457 µM
[8]
  GI50: 0.105 µM
[9]
  GI50: 24.5 µM
  IC (TGI): 72.4 µM
[10]; IGROV-1, IGROV1, read-out: Log10 GI50 (converted)
  GI50: 0.0141 µM
[10]; IGROV-1, IGROV1, read-out: Log10 TGI (converted)
  IC (TGI): 0.174 µM
[11]
  GI50: > 100 µM
  IC (TGI): > 100 µM
[12]
  GI50: 47.9 µM
  IC (TGI): > 100 µM
[13]
  GI50: > 100 µM
  IC (TGI): > 100 µM
[14]
  GI50: 30.9 µM
  IC (TGI): > 100 µM
[15]
  IC (TGI): > 100 µM
[16]
  GI50: 6.92 µM
  IC (TGI): 30.9 µM
[17]
  GI50: 37.2 µM
  IC (TGI): > 100 µM
[18]
  GI50: 0.0229 µM
[19]
  GI50: < 0.01 µM
  IC (TGI): 0.0245 µM
[20]
  GI50: 33.9 µM
  IC (TGI): 87.1 µM
[21]
  GI50: 20.9 µM
  IC (TGI): > 100 µM
[22]
  GI50: 15.5 µM
  IC (TGI): 36.3 µM
[23]
  GI50: 6.46 µM
  IC (TGI): 22.9 µM
[24]
  GI50: > 100 µM
  IC (TGI): > 100 µM
[25]
  GI50: > 100 µM
  IC (TGI): > 100 µM
[26]
  GI50: 20.9 µM
  IC (TGI): 56.2 µM
[27]
  GI50: 28.2 µM
  IC (TGI): > 100 µM
[28]
  GI50: 43.7 µM
  IC (TGI): > 100 µM
[29]
  GI50: 6.03 µM
  IC (TGI): 33.1 µM
[30]
  IC (TGI): 20 µM
[31]
  GI50: < 0.01 µM
  IC (TGI): 0.0562 µM
[32]
  GI50: 0.017 µM
  IC (TGI): 0.646 µM

## OCc1ccc(-c2ccc(-c3ccc(CO)s3)[se]2)s1 [compound 675343]
[1]
  GI50: < 0.01 µM
  IC (TGI): 26.3 µM
[2]
  GI50: > 100 µM
  IC (TGI): > 100 µM
[3]
  GI50: < 0.01 µM
  IC (TGI): < 0.01 µM
[4]
  GI50: > 100 µM
  IC (TGI): > 100 µM
[5]
  GI50: > 100 µM
  IC (TGI): > 100 µM
[6]
  GI50: > 100 µM
  IC (TGI): > 100 µM
[7]
  GI50: < 0.01 µM
  IC (TGI): < 0.01 µM
[8]
  GI50: < 0.01 µM
[8]; OVCAR-4, read-out: Log10 TGI (converted)
  IC (TGI): > 100 µM
[9]
  GI50: > 100 µM
  IC (TGI): > 100 µM
[11]
  GI50: > 100 µM
  IC (TGI): > 100 µM
[12]
  GI50: > 100 µM
  IC (TGI): > 100 µM
[13]
  GI50: ≥ 100 µM
  IC (TGI): > 100 µM
[14]
  GI50: > 100 µM
  IC (TGI): > 100 µM
[15]; [33]
  GI50: > 100 µM
[15]
  IC (TGI): > 100 µM
[16]
  GI50: < 0.01 µM
  IC (TGI): > 100 µM
[17]
  GI50: > 100 µM
  IC (TGI): > 100 µM
[18]
  GI50: 0.158 µM
[18]; OVCAR-5, read-out: Log10 TGI (converted)
  IC (TGI): > 100 µM
[19]
  GI50: < 0.01 µM
  IC (TGI): < 0.01 µM
[20]
  GI50: > 100 µM
  IC (TGI): > 100 µM
[21]
  GI50: > 100 µM
  IC (TGI): > 100 µM
[22]
  GI50: > 100 µM
  IC (TGI): > 100 µM
[23]
  GI50: > 100 µM
  IC (TGI): > 100 µM
[24]
  GI50: > 100 µM
  IC (TGI): > 100 µM
[25]
  GI50: > 100 µM
  IC (TGI): > 100 µM
[26]
  GI50: > 100 µM
  IC (TGI): > 100 µM
[27]
  GI50: 40.7 µM
  IC (TGI): > 100 µM
[28]
  GI50: > 100 µM
  IC (TGI): > 100 µM
[29]
  GI50: > 100 µM
  IC (TGI): > 100 µM
[30]; [33]
  GI50: 9.77 µM
[30]
  IC (TGI): > 100 µM
[31]
  GI50: 0.0257 µM
  IC (TGI): 32.4 µM
[32]
  GI50: < 0.01 µM
  IC (TGI): > 100 µM
